According to patent US4772587A, “Dipeptide derivative of fatty acid” (Suntory Limited, priority 1985, dated 1988):
Residues, ends and D or L forms follow the SMILES beside them. *: point of attachment. Oleoyl = CCCCCCCC/C=C\CCCCCCCC(=O)*

Assays:
prolyl endopeptidase = prolyl endopeptidase (Elizabethkingia meningoseptica, UniProt P27028); assay: Measurement of anti-prolyl endopeptidase activity (decomposition of Z-glycyl-proline-β-naphthylamide); format: biochemical; details: substrate Z-glycyl-proline-β-naphthylamide, phosphate buffer pH 7.0
Description: The method of Yoshimoto and Tsuru (T. Yoshimoto and D. Tsuru, Agr. Biol. Chem. 42, 2417, 1978) was used to measure the anti-prolyl endopeptidase activities of several compounds of the present invention. A mixture of 0.0025M Z-glycyl-proline-β-naphthylamide (0.25 ml), 0.1M phosphate buffer (pH, 7.0; 0.99 ml) and a solution of a particular anti-prolyl endopeptidase compound (0.01 ml) was incubated in a test tube at 37° C. for 3 minutes. Thereafter, 0.1 ml of a solution of prolyl endopeptidase (0.2 U/ml) was added and the mixture was heated at 35° C. for 10 minutes. After the reaction, 2.0 ml of Triton X-100 in 1M acetate buffer (pH, 4.0) was added to the reaction mixture until the final concentration of the surfactant was 10%. The mixture was left at room temperature for 15 minutes and the absorbance (a) at 410 nm was measured.
A sample for blind test was prepared by using the buffer instead of the anti-prolyl endopeptidase compound and its absorbance (b) was also measured. The percent inhibition of prolyl endopeptidase was calculated by the formula: ((b-a)/b)×100, and the amount of a specific compound to achieve 50% inhibition (IC50) was determined.

[1] = system: experimental amnesia caused in rats by scopolamine; assay: Preventive effect against experimental amnesia caused in rats by scopolamine (passive avoidance learning); format: in vivo, Wister male rats; details: sample 25 μg/kg i.p.; scopolamine 3 mg/kg i.p. after learning
Description: Several of the anti-prolyl endopeptidase compounds of the present invention were checked for their ability to prevent the inhibition of long-term memory fixation by scopolamine. Solutions of physiological saline (0.3 ml) that contained selected compounds of the present inventions in varying amounts ([…], 0.25 mg, 0.1 mg, 0.025 mg and 0.010 mg/kg) were administered intraperitoneally once a day to Wister male rats (100-120 g). One hour after the administration, electric shocks (1.7 mA) were applied to the rats so that they would acquire passive avoidance learning. Immediately thereafter, scopolamine was administered intraperitoneally to each rat in an amount of 3 mg per kg of body weight.
The result of the test was assessed both 24 hours and 48 hours after the administration of scopolamine. The number of amnesic rats and of sound rats was counted for each of the control group (rats to which the test compounds had not been administered but to which only scopolamine and physiological saline had been administered intraperitoneally and the treated group (rats to which both the test compound and scopolamine had been administered). The results are shown in Table 3.

ddY strain male mice = assay: Anti-hypoxia action (survival time in desiccator evacuated to 180 mmHg); format: in vivo; details: for No. of survival/used (Drug): 30 minutes before evacuation to 180 mmHg
Description: The compounds of the present invention were checked for their anti-hypoxia action in ddY strain male mice (body weight: 25-34 g). Each of the treated groups consisted of 7 to 10 mice. Test samples were prepared by adding 2 to 3 drops of Tween 80® to physiological saline and suspending the respective compounds in the saline. The so conditioned test samples were administered (0.1 m 10 g) to each of the mice used.
At 30 minutes after the administration, each of the mice was placed in a desiccator having a volume of 1 l, and the desiccator was evacuated to 180 mmHg using a vacuum pump. The period of time from the start of the evacuation until the arrest of breathing was defined as Survival Time (minute).
When a mouse survived for 15 minutes or more, the survival time was recorded as being 15 minutes. Student's t-test was employed for significance analysis.

[2] = system: experimental amnesia caused in rats by scopolamine; assay: Preventive effect against experimental amnesia caused in rats by scopolamine (passive avoidance learning); format: in vivo, Wister male rats; details: administered orally (so in the source) in an amount of 0.025 mg/kg
[3] = Solubility in organic solvents; format: physicochemical
Excerpt: All the compouds in Table 1 are oils which are soluble in CCl4, ether, CHCl3, CH2 Cl2, AcOEt and MeOH.

prolyl endopeptidase, sequence (P27028 21-705): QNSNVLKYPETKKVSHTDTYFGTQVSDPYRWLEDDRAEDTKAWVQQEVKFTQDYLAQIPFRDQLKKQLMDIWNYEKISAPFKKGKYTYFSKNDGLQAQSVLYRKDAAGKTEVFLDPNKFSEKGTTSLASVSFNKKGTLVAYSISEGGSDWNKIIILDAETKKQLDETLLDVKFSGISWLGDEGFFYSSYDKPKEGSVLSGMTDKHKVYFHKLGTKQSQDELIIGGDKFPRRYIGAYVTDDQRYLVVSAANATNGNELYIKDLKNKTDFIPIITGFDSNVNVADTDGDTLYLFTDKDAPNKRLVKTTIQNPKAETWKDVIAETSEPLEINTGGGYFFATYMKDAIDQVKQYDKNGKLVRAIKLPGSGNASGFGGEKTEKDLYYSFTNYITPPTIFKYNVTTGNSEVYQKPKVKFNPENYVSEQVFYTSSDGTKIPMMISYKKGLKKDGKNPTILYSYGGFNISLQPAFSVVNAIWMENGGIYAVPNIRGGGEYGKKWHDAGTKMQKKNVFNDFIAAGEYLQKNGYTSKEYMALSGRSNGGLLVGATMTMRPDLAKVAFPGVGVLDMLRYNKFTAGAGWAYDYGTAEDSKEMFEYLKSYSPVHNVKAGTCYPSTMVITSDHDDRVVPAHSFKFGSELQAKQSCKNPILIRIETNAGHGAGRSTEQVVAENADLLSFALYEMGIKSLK

Row | Structure (SMILES) | IC50 (amount of compound to achieve 50% inhibition) (prolyl endopeptidase) | Avoidance time 24 hrs. later [1] | Avoidance time 48 hrs. later [1] | No. of amnesic rats/No. of rats tested [1] | Percentage amnesia [1] | Survival time Ratio (Drug/Control) (ddY strain male mice; 1 mg/kg i.p.) | No. of survival/used (Drug) (ddY strain male mice; 1 mg/kg i.p.) | Survival time (Mean ± S.E.), Drug (ddY strain male mice; 1 mg/kg i.p., p < 0.05 vs control) | Survival time Ratio (Drug/Control) (ddY strain male mice; 10 mg/kg i.p.) | No. of survival/used (Drug) (ddY strain male mice; 10 mg/kg i.p.) | Survival time (Mean ± S.E.), Drug (ddY strain male mice; 10 mg/kg i.p., p < 0.1 vs control) | anti-amnesic action (in words) [2] | solubility in benzene [3]
1 | CCCCCCCC/C=C\CCCCCCCC(=O)N[C@@H](Cc1ccccc1)C(=O)N1CCC[C@H]1C=O [SUAM 1212, oleoyl-Phe-Pro-CHO] (Oleoyl-Phe-Pro-aldehyde) | 0.4 ng/test tube | 300 s | 285 s | 0/10 | 0% | 1.27 | 0/7 | 2.94 ± 0.27 mini | 1.28 | 0/7 | 2.89 mini | strong anti-amnesic action | 
2 | CCCCCCCC/C=C\CCCCCCCC(=O)NC(Cc1ccccc1)C(=O)N1CCCC1C(=O)OC (stereo not drawn) [SUAM 1194, oleoyl-Phe-Pro-OMe] (Oleoyl-Phe-Pro-OMe; configuration not given here) |  |  |  |  |  |  |  |  |  |  |  |  | soluble in benzene
